Calls of active or inactive are those of the source. The calls are words filed in the database; no cut-off is given here.

For experiment [1], the species on record is Homo sapiens. As to the kind of experiment: Inhibition of human GGT at 0.1 mM using gamma-Glu-AMC as substrate measured for 10 mins by fluorescence assay.
The species entered for experiment [2] is Homo sapiens. As to the kind of experiment: Inhibition of human GGT assessed as inactivation rate constant using gamma-Glu-AMC as substrate measured for 10 mins by fluorescence assay.

Regarding `CO[P@](=O)(CC[C@H](N)C(=O)O)Oc1cccc(CC(=O)O)c1`, the K in the experiment filed under Homo sapiens [1] was determined as 174 M⁻¹ s⁻¹.

Molecule `CO[P@](=O)(CC[C@@H](N)C(=O)O)Oc1cccc(CC(=O)O)c1` came in with a K in the experiment listed under Homo sapiens [1] of 21.5 M⁻¹ s⁻¹.

In the case of `CO[P@@](=O)(CC[C@@H](N)C(=O)O)Oc1cccc(CC(=O)O)c1`, the inhibition result in the experiment filed under Homo sapiens [2] was “inactive”.

For `CO[P@@](=O)(CC[C@H](N)C(=O)O)Oc1cccc(CC(=O)O)c1`, the inhibition entry in the experiment filed under Homo sapiens [2] is “inactive”.

As to `COP(=O)(CCC(N)C(=O)O)Oc1cccc(CC(=O)O)c1` (stereo not given), the K in the experiment listed under Homo sapiens [2] is 51 M⁻¹ s⁻¹.

The values above are taken from ChEMBL document CHEMBL4177591, “Synthesis and evaluation of the inhibitory activity of the four stereoisomers of the potent and selective human γ-glutamyl transpeptidase inhibitor GGsTop” (Bioorg Med Chem Lett, 2017).
